Settings: for specific volume: Gas, isochoric method; for mass density: Liquid, Vibrating tube method

F/C=C(\F)C(F)(F)F [(Z)-1,2,3,3,3-pentafluoro-1-propene]
Settings | mass density [kg/m3] | specific volume [m3/kg]
263.15 K, 135.2 kPa | – | 0.115
268.15 K, 138.3 kPa | – | 0.115
273.14 K, 141.3 kPa | – | 0.116
273.15 K, 202.4 kPa | – | 0.079
278.15 K, 144.3 kPa | – | 0.116
278.15 K, 207 kPa | – | 0.079
282.83 K, 301.1 kPa | – | 0.054
283.14 K, 12501 kPa | 1378.7 | –
283.15 K, 211.5 kPa | – | 0.079
283.15 K, 510 kPa | 1329.6 | –
283.15 K, 604 kPa | 1330.1 | –
283.15 K, 1003 kPa | 1332 | –
283.15 K, 1499 kPa | 1334.5 | –
283.15 K, 1997 kPa | 1336.8 | –
283.15 K, 2500 kPa | 1339.1 | –
283.15 K, 5000 kPa | 1350.2 | –
283.15 K, 7499 kPa | 1360.3 | –
283.15 K, 9998 kPa | 1369.8 | –
283.15 K, 15001 kPa | 1387 | –
283.15 K, 17501 kPa | 1395 | –
283.15 K, 20001 kPa | 1402.5 | –
283.15 K, 22497 kPa | 1409.9 | –
283.15 K, 25000 kPa | 1417 | –
283.16 K, 147.3 kPa | – | 0.116
283.16 K, 27503 kPa | 1423.9 | –
283.16 K, 29999 kPa | 1430.3 | –
283.16 K, 32498 kPa | 1436.2 | –
283.16 K, 35004 kPa | 1442.4 | –
287.91 K, 307.5 kPa | – | 0.054
288.15 K, 150.2 kPa | – | 0.116
288.15 K, 215.6 kPa | – | 0.079
292.78 K, 314.1 kPa | – | 0.054
293.15 K, 152.7 kPa | – | 0.116
293.15 K, 220 kPa | – | 0.079
293.15 K, 470 kPa | 1293.2 | –
293.15 K, 598 kPa | 1293.9 | –
293.15 K, 1000 kPa | 1296.2 | –
293.15 K, 1500 kPa | 1299.1 | –
293.15 K, 2000 kPa | 1301.9 | –
293.15 K, 2500 kPa | 1304.6 | –
293.15 K, 5000 kPa | 1317.4 | –
293.15 K, 7500 kPa | 1329 | –
293.15 K, 10001 kPa | 1339.8 | –
293.15 K, 12500 kPa | 1349.7 | –
293.15 K, 14999 kPa | 1359 | –
293.15 K, 17500 kPa | 1367.8 | –
293.15 K, 20000 kPa | 1376 | –
293.15 K, 22500 kPa | 1383.9 | –
293.15 K, 25000 kPa | 1391.4 | –
293.15 K, 27499 kPa | 1398.5 | –
293.15 K, 30000 kPa | 1405.4 | –
293.15 K, 32500 kPa | 1412 | –
293.15 K, 34999 kPa | 1418.5 | –
297.14 K, 418.9 kPa | – | 0.04
298.15 K, 155.7 kPa | – | 0.116
298.15 K, 224.3 kPa | – | 0.079
298.15 K, 498.5 kPa | – | 0.032
298.47 K, 320.7 kPa | – | 0.054
303.14 K, 327 kPa | – | 0.054
303.14 K, 510.2 kPa | – | 0.032
303.15 K, 158.7 kPa | – | 0.116
303.15 K, 228.2 kPa | – | 0.079
303.15 K, 430 kPa | – | 0.04
303.15 K, 700 kPa | 1255.3 | –
303.15 K, 1000 kPa | 1257.4 | –
303.15 K, 1500 kPa | 1260.9 | –
303.15 K, 2000 kPa | 1264.3 | –
303.15 K, 7500 kPa | 1296.6 | –
303.15 K, 9999 kPa | 1308.8 | –
303.15 K, 12500 kPa | 1320.1 | –
303.15 K, 20000 kPa | 1349.2 | –
303.15 K, 22501 kPa | 1357.8 | –
303.15 K, 24999 kPa | 1366 | –
303.15 K, 27500 kPa | 1374.4 | –
303.16 K, 2499 kPa | 1267.8 | –
303.16 K, 5000 kPa | 1283.2 | –
303.16 K, 14996 kPa | 1330.5 | –
303.16 K, 17500 kPa | 1340.2 | –
303.16 K, 30000 kPa | 1381.8 | –
303.16 K, 32500 kPa | 1388.8 | –
303.16 K, 35000 kPa | 1395.6 | –
308.12 K, 522.1 kPa | – | 0.032
308.14 K, 161.7 kPa | – | 0.116
308.14 K, 612.3 kPa | – | 0.027
308.15 K, 232.8 kPa | – | 0.079
308.15 K, 333.9 kPa | – | 0.054
308.15 K, 439 kPa | – | 0.04
312.86 K, 236.9 kPa | – | 0.079
313.13 K, 533.4 kPa | – | 0.032
313.14 K, 627 kPa | – | 0.027
313.14 K, 7500 kPa | 1262.1 | –
313.14 K, 10000 kPa | 1276.1 | –
313.15 K, 164.2 kPa | – | 0.116
313.15 K, 447.9 kPa | – | 0.04
313.15 K, 1000 kPa | 1216.2 | –
313.15 K, 1500 kPa | 1220.4 | –
313.15 K, 2008 kPa | 1224.6 | –
313.15 K, 5000 kPa | 1246.4 | –
313.15 K, 12501 kPa | 1288.9 | –
313.15 K, 15000 kPa | 1300.5 | –
313.15 K, 17497 kPa | 1311.3 | –
313.15 K, 20000 kPa | 1321.4 | –
313.15 K, 22500 kPa | 1330.8 | –
313.15 K, 25000 kPa | 1339.7 | –
313.15 K, 27500 kPa | 1348.1 | –
313.15 K, 30001 kPa | 1356.1 | –
313.15 K, 32500 kPa | 1363.7 | –
313.15 K, 35000 kPa | 1371 | –
313.16 K, 340.4 kPa | – | 0.054
313.16 K, 2501 kPa | 1228.3 | –
318.14 K, 346.9 kPa | – | 0.054
318.14 K, 641.3 kPa | – | 0.027
318.15 K, 166.8 kPa | – | 0.116
318.15 K, 241.3 kPa | – | 0.079
318.15 K, 457 kPa | – | 0.04
318.23 K, 544.9 kPa | – | 0.033
323.14 K, 353.4 kPa | – | 0.054
323.14 K, 555.9 kPa | – | 0.033
323.14 K, 655.2 kPa | – | 0.027

Reference: the NIST ThermoML archive (doi:10.1021/acs.jced.5b00562)
